Reference: patent US20240067651A1 (Biohaven Therapeutics Ltd., priority 2019, published 2024)

Assays:
[1] = Caco-2 Permeability Assay; type: in vitro ADME, human; settings: human
From the text: The compounds of the invention may be tested for biological activity as MPO inhibitors by methods known to those skilled in the art. In addition, methods such as, for example, a Caco-2 assay, may be used to test the bioavailability of the compounds of the invention. A description of a Caco-2 permeability assay is as follows:
• The Caco-2 monolayer is widely used across the pharmaceutical industry as an in vitro model of the human small intestinal mucosa to predict the absorption of orally administered drugs.^1-4 • The Caco-2 cell model mimics processes such as transcellular transport, paracellular transport, and some aspects of efflux and active transport. • Readout: Papp (A→B), Papp (B→A), Efflux ratio, % Recovery • Controls: with and without Pgp inhibitor; Atenolol, Propanolol, Taxel-1
The Caco-2 cells are cultured to confluency, trypsinized and seeded onto a filter transwell insert at a density of ^˜32,000 cells/well in DMEM cell culture medium. Cells are grown in a humidified atmosphere of 5% CO2 at 37° C. Following an overnight attachment period (24 h after seeding), the cell medium is replaced with fresh medium in both the apical and basolateral compartments every other day. The cell monolayers are used for transport studies 21 days post seeding after measuring the TEER values ([…]). The apical sides and basolateral sides are washed consecutively with HBSS 2.5% (v/v), HEPES (pH 7.4) or HBSS 2.5% (v/v), HEPES 10% (v/v), and Fetal Bovine Serum (pH 7.4) at 37° C. in an incubator under an atmosphere of 5% CO2.
Donor working solution is prepared by dilution of DMSO stock of test article or positive control with transport media to 10 μM.
For A→B directional transport, the donor working solution (with test article or positive control, with or without Pgp inhibitor) is added to the apical (A) compartment and the transport media as receiver working solution is added to the basolateral (B) compartment. For B→A directional transport, the donor working solution (with positive control or test article, with or without Pgp inhibitor) is added to the basolateral (B) compartment and transport media as receiver working solution is added to the apical (A) compartment.
The cells are incubated in a humidified atmosphere of 5% CO2 at 37° C. for 90 minutes.
At the end of the incubation, samples are taken from both donor and receiver compartments and transferred into 96-well assay plates containing internal standard solution (IS) in each well. After centrifugation, the supernatant solutions are transferred to clean 96 well plates and analyzed by LC-MS/MS. The MS detection is performed using a Sciex API 4000 instrument. Each compound is analyzed by reversed phase HPLC.
The parameters Papp (apparent permeability) and efflux ratio are calculated as follows:
Papp=(dQ/dt)×(1/C0)×(1/A)
Efflux ratio=Papp[B→A]/Papp[A→B]
where dQ/dt is the permeability rate, C0 is the initial concentration in the donor compartment, and A is the surface area of the cell monolayer (0.33 cm^2). The Papp value is a rate measured in cm/s. Calculated Papp is ranked as low (<[…]), moderate (1-10×10^−6 cm/s), and high (>[…]).
Comparing the efflux ratios generated in the presence and absence of a Pgp inhibitor identifies whether the test article is a Pgp substrate.
Recovery is calculated as follows:
% Recovery=(Total compound mass in donor and receiver compartments at the end of the incubation/Initial compound mass in the donor compartment)×100.

[2] = Stability in Simulated Gastric Fluid (SGF); type: in vitro ADME; parameters: key: % parent compound remaining relative to 0-minute sample
Method: (§1) Simulated gastric fluid (SGF) and Simulated intestinal fluid (SIF) stability are in vitro metrics indicating the ability of a compound to pass through the gastrointestinal tract […] or completely digested. An undigested or nearly undigested compound will usually survive gut transit long enough to be absorbed into the systemic circulation. Greater than 50% remaining intact compound at 1 hour indicates a relatively stable molecule that will likely be absorbed in the gut.
(§2) For each test compound, samples at a final concentration of 2 μg/mL are prepared in respective blank simulated gastric fluid with pepsin (pH 1.2) and simulated intestinal fluid with pancreatin (pH 6.8). All samples are incubated at 37° C. on a 150-rpm orbital shaker, and an aliquot is removed at predetermined time points (0 to 60 minutes). Samples are precipitated with three volumes of acetonitrile containing propranolol as internal standard, and centrifuged for 10 min at 2,000 g before LC-MS/MS analysis of the supernatant solutions. Percent parent compound remaining is determined relative to 0-minute incubation samples. If a sufficient number of time points are available, the degradation half-life is calculated based on the natural log of % compound remaining vs. time plot.

[3] = Stability in Simulated Intestinal Fluid (SIF); type: in vitro ADME; parameters: key: % parent compound remaining relative to 0-minute sample
Method: as §1, §2

Plasma Stability = type: in vitro ADME, human
Method: Plasma stability estimates the ability of a compound to remain intact in the blood. For prodrugs that are intended to be hydrolyzed by plasma enzymes a certain level of instability in plasma indicates the compound is probably breaking down to the parent drug. A stability range of 25-75% remaining parent compound after 1 hour in plasma indicates the compound is likely breaking down to the parent drug molecule and a patient will be exposed to this parent molecule.
Assessment of plasma stability was carried out by individual incubations of drug candidates in fresh human plasma at a concentration of 1 μM for 1 hour at 37° C. After which, the samples were de-proteinized by addition of 2 volumes of acetonitrile containing 0.1% formic acid and internal standard, vortex mixed for 2 minutes and centrifuged at 4,000 rpm for 10 minutes to pellet precipitated protein. The resulting supernatant containing the drug candidates was diluted 5-fold with water containing 0.1% formic acid and submitted to LCMS/MS analysis. All determinations were done in triplicate. Plasma stability was expressed as percent of control remaining.
See Pelletier et al. ACS Med. Chem. Lett. 2018, 9, 752-756.

[4] = bare number, unit or time not given
[5] = Caco-2, pH 7.4, Caco-2 monolayer
[6] = % remaining at 1 h in simulated gastric fluid
[7] = % remaining at 1 h in simulated intestinal fluid
[8] = % remaining at 1 h in human plasma

Structure (SMILES): CC(C)OCCn1c(SCOC(=O)CCCCOC(=O)CN)nc(=O)c2c1ccn2COC(=O)CCCCOC(=O)CN.O=C(O)C(F)(F)F.O=C(O)C(F)(F)F [Example 331, bis (trifluoroacetic acid) ({5-[{{5-[(2-aminoacetyl)oxy]pentanoyl}oxy)meth-yl]-4-oxo-1-[2-(propan-2-yloxy)ethyl]-1H,4H,5H-pyrrolo[3,2-d]pyrimidin-2-yl}sulfanyl)methyl 5-[(2-aminoacetyl)oxy]pentanoate]
- Papp at 90 min, 10 µM ([1]; Caco-2, pH 7.4): 3.68 ×10⁻⁶ cm/s
- SGF ([2]; % remaining @ 1 h): 93% @ 1 h
- SIF ([3]; % remaining @ 1 h): 1% @ 1 h
- human Plasma stability (Plasma Stability; % remaining @ 1 h): 1% @ 1 h

Structure (SMILES): CCCNC(=O)n1ccc2c1c(=O)[nH]c(=S)n2CCOC(C)C [Example 225]
- Papp at 90 min, 10 µM ([1]; Caco-2, pH 7.4, Caco-2 monolayer, the 17th table): 24.3 ×10⁻⁶ cm/s
- SGF ([2]; % remaining at 1 h in simulated gastric fluid, the 17th table): 98% remaining
- SIF ([3]; % remaining at 1 h in simulated intestinal fluid, the 17th table): 78% remaining
- human Plasma stability (Plasma Stability; % remaining at 1 h in human plasma, the 17th table): 99% remaining

Structure (SMILES): CC(C)OCCn1c(SCOC(=O)N(C)c2ccccc2)nc(=O)c2[nH]ccc21 [Example 209, ({4-oxo-1-[2-(propan-2-yloxy)ethyl]-1H,4H,5H-pyrrolo[3,2-d]pyrimidin-2-yl}sulfanyl)methyl N-methyl-N-phenylcarbamate]
- Papp at 90 min, 10 µM ([1]; Caco-2, pH 7.4, donor 10 μM, 90 minutes, 37° C., direction not given): 16.1 ×10⁻⁶ cm/s
- SGF ([2]; % remaining at 1 h, SGF with pepsin pH 1.2, 2 μg/mL, 37° C.): 99% remaining
- SIF ([3]; % remaining at 1 h, SIF with pancreatin pH 6.8, 2 μg/mL, 37° C.): 99% remaining
- human Plasma stability (Plasma Stability; % remaining at 1 h, human plasma, 1 μM, 37° C.): 97% remaining

Structure (SMILES): CC(C)OCCn1c(=S)n(COC(=O)CCCCOC(=O)[C@H](N)C(C)C)c(=O)c2c1ccn2COC(=O)CCCCOC(=O)[C@H](N)C(C)C.O=C(O)C(F)(F)F.O=C(O)C(F)(F)F [Example 339, bis(trifluoroacetic acid) (3-{[(5-{[(2R)-2-amino-3-methylbutanoyl]oxy}pentanoyl)oxy]methyl}-4-oxo-1-[2-(propan-2-yloxy)ethyl]-2-sulfanylidene-1H,2H,3H,4H,5H-pyrrolo[3,2-d]pyrimidin-5-yl)methyl 5-{[(2R)-2-amino-3-methylbutanoyl]oxy}pentanoate]
- Papp at 90 min, 10 µM ([1]; Caco-2, pH 7.4): 3.86 ×10⁻⁶ cm/s
- SGF [2, 4]: 99
- SIF [3, 4]: 72
- human Plasma stability (Plasma Stability; % remaining @ 1 h): 44% remaining

Structure (SMILES): CC(C)OCCn1c(=S)[nH]c(=O)c2c1ccn2COC(=O)CCCCCCCCCCCCCCC(=O)OC(C)C [Example 256]
- Papp at 90 min, 10 µM [1, 5]: 0.25 ×10⁻⁶ cm/s
- SGF ([2]; simulated gastric fluid, after 1 h): 99% remaining
- SIF ([3]; simulated intestinal fluid, after 1 h): 9% remaining
- human Plasma stability (Plasma Stability; human plasma, after 1 h): 88% remaining

Structure (SMILES): CC(C)OCCn1c(SCOC(=O)OCCOCCNC(=O)OC(C)(C)C)nc(=O)c2[nH]ccc21 [Example 369, 2-{[{{[2-(2-{[(tert-butoxy)carbonyl]amino}ethoxy)eth-oxy]carbonyl}oxy)methyl]sulfanyl}-1-[2-(propan-2-yloxy)ethyl]-1H,4H,5H-pyrrolo[3,2-d]pyrimidin-4-one]
- Papp at 90 min, 10 µM [1, 5]: < 0.107 ×10⁻⁶ cm/s
- SGF ([2]; simulated gastric fluid, remaining at 1 h): 89% remaining
- SIF ([3]; simulated intestinal fluid, remaining at 1 h): 1% remaining
- human Plasma stability (Plasma Stability; human plasma, remaining at 1 h): 1% remaining

Structure (SMILES): CNCC(=O)NCCC(=O)OCn1ccc2c1c(=O)[nH]c(=S)n2CCOC(C)C.O=C(O)C(F)(F)F [Example 56]
- Papp at 90 min, 10 µM [1, 5]: 0.144 ×10⁻⁶ cm/s
- SGF [2, 6]: 64% remaining
- SIF [3, 7]: 1% remaining
- human Plasma stability (Plasma Stability; [8]): 0% remaining

Structure (SMILES): CC(C)OCCn1c(SCOC(=O)N(C)C(C)C)nc(=O)c2[nH]ccc21.O=C(O)C(F)(F)F [Example 166]
- Papp at 90 min, 10 µM [1, 5]: 7.08 ×10⁻⁶ cm/s
- SGF ([2]; % @ 1 h (remaining) in simulated gastric fluid): 99% @ 1 h
- SIF ([3]; % @ 1 h (remaining) in simulated intestinal fluid): 99% @ 1 h
- human Plasma stability (Plasma Stability; % @ 1 h (remaining) in human plasma): 100% @ 1 h

Structure (SMILES): CC(C)OCCn1c(=S)[nH]c(=O)c2c1ccn2COC(=O)CCNC(=O)[C@H](CCc1ccccc1)NC(=O)OC(C)(C)C.O=C(O)C(F)(F)F [Example 19]
- Papp at 90 min, 10 µM [1, 5]: 11.7 ×10⁻⁶ cm/s
- SGF [2, 6]: 82% remaining
- SIF [3, 7]: 57% remaining
- human Plasma stability (Plasma Stability; [8]): 42% remaining

Structure (SMILES): CC(C)OCCn1c(=S)[nH]c(=O)c2c1ccn2COC(=O)CCCCNC(=O)[C@@H](NC(=O)OC(C)(C)C)[C@@H](C)O.O=C(O)C(F)(F)F [Example 35]
- Papp at 90 min, 10 µM [1, 5]: 1.91 ×10⁻⁶ cm/s
- SGF [2, 6]: 91% remaining
- SIF [3, 7]: 99% remaining
- human Plasma stability (Plasma Stability; [8]): 30% remaining

Structure (SMILES): CC(C)OCCn1c(SCOC(=O)NCc2ccccc2)nc(=O)c2c1ccn2C(=O)NCc1ccccc1 [Example 193]
- Papp at 90 min, 10 µM ([1]; Caco-2, pH 7.4, Caco-2 monolayer, the 15th table): 31.6 ×10⁻⁶ cm/s
- SGF ([2]; % remaining at 1 h in simulated gastric fluid, the 15th table): 98% remaining
- SIF ([3]; % remaining at 1 h in simulated intestinal fluid, the 15th table): 57% remaining
- human Plasma stability (Plasma Stability; % remaining at 1 h in human plasma, the 15th table): 95% remaining

Structure (SMILES): CC(C)OCCn1c(=S)n(COC(=O)[C@@H](Cc2ccccc2)NC(=O)OC(C)(C)C)c(=O)c2c1ccn2COC(=O)[C@@H](Cc1ccccc1)NC(=O)OC(C)(C)C [Example 307, [3-({[(2R)-2-{[(tert-butoxy)carbonyl]amino}-3-phenylpropanoyl]oxy}methyl)-4-oxo-1-[2-(propan-2-yloxy)ethyl]-2-sulfanylidene-1H,2H,3H,4H,5H-pyrrolo[3,2-d]pyrimidin-5-yl]methyl (2R)-2-{[(tert-butoxy)carbonyl]amino}-3-phenylpropanoate]
- Papp at 90 min, 10 µM ([1]; Caco-2, pH 7.4): 0.334 ×10⁻⁶ cm/s
- SGF ([2]; % remaining @ 1 h): 26% @ 1 h
- SIF ([3]; % remaining @ 1 h): 43% @ 1 h
- human Plasma stability (Plasma Stability; % remaining @ 1 h): 99% @ 1 h

Structure (SMILES): Cc1ccccc1N(C)C(=O)OCSc1nc(=O)c2[nH]ccc2n1CCOC(C)C [Example 242]
- Papp at 90 min, 10 µM [1, 5]: 15.6 ×10⁻⁶ cm/s
- SGF ([2]; simulated gastric fluid, at 1 h): 52% remaining
- SIF ([3]; simulated intestinal fluid, at 1 h): 96% remaining
- human Plasma stability (Plasma Stability; human plasma, at 1 h): 81% remaining

Structure (SMILES): CC(C)OCCn1c(SCOC(=O)c2ccccc2)nc(=O)c2c1ccn2COC(=O)c1ccccc1.O=C(O)C(F)(F)F [Example 158]
- Papp at 90 min, 10 µM [1, 5]: 5.37 ×10⁻⁶ cm/s

Structure (SMILES): CC(C)OCCn1c(SCOC(=O)C(C)(C)C)nc(=O)c2c1ccn2COC(=O)C(C)(C)C [Example 144]
- Papp at 90 min, 10 µM [1, 5]: 5.11 ×10⁻⁶ cm/s
